# Data as given in BindingDB's records for doi:10.1124/jpet.300.2.478 (Abbott Laboratories, 2002).
# Assays:
# [1] = target: T1, Alpha-1B adrenergic receptor (Homo sapiens, UniProt P35368)
# T1 sequence (P35368 whole entry): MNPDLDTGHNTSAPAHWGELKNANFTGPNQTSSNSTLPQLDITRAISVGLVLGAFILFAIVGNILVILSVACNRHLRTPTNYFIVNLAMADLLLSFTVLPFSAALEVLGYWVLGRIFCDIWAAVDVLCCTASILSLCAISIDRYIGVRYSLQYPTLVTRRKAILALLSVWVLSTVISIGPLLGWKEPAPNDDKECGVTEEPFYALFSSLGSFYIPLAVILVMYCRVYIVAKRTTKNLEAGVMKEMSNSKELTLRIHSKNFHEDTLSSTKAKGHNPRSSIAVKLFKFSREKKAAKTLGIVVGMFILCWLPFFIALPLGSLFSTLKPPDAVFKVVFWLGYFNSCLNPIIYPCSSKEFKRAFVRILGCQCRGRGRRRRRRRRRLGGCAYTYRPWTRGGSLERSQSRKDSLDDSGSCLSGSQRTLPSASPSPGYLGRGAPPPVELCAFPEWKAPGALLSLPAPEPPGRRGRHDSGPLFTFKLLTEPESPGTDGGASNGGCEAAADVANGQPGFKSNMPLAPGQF
# [2] = target: T2, Alpha-1D adrenergic receptor (Homo sapiens, UniProt P25100)
# T2 sequence (P25100 whole entry): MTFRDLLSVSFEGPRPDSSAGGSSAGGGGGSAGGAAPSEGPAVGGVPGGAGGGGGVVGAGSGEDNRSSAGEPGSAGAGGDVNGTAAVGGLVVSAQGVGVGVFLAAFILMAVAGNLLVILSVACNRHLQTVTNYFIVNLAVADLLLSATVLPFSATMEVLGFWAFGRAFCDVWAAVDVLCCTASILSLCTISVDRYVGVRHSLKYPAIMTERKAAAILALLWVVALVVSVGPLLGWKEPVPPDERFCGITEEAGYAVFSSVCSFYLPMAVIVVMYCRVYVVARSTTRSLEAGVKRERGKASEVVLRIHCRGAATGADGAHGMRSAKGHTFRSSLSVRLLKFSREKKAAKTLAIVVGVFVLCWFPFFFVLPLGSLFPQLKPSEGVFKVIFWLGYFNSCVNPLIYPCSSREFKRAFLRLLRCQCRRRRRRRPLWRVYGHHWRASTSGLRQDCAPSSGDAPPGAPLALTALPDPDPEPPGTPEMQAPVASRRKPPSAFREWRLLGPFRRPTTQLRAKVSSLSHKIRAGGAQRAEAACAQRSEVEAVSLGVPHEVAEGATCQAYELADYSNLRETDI
Ki [1] [pM],Ki [2] [pM],Compound
600,56,CCOc1ccccc1OCCN[C@H](C)Cc1ccc(OC)c(S(N)(=O)=O)c1 [5-[(2R)-2-{[2-(2-ethoxyphenoxy)ethyl]amino}propyl]-2-methoxybenzenesulfonamide]
–,660,"COc1cc2nc(N3CCN(C(=O)C4CCCO4)CC3)nc(N)c2cc1OC (stereo not given) [6,7-dimethoxy-2-[4-(tetrahydrofuran-2-ylcarbonyl)piperazin-1-yl]quinazolin-4-amine]"
25100,910,COc1cccc2c1C1CN(CCCCn3c(=O)[nH]c4c(sc5ncc(-c6ccccc6)nc54)c3=O)CC1CO2 (stereo not given) [CAS_172307]
